From patent US20030096237A1, “Determination of the ability of patients to respond to a tumor treatment” (priority 2000, published 2003)

Test system: CNCM I-2546
Test: oligonucleotide array analysis of IFN-α modulated gene expression
Format: cell-based, human
Description: All these cell lines were cultured in RPMI medium supplemented with 10% FCS, glutamine (2 mM), sodium pyruvate (1 mM), non-essential amino acids and HEPES buffer (10 mM) (all from GIBCO Life Sciences, Paisley, UK). When confluent, the cells were passaged by trypsinization.
Cultured melanoma cells were harvested by scraping and total cellular RNA was extracted. 10 μg from each sample were used directly as templates for cDNA synthesis using a commercial kit (Roche Molecular Biochemicals, Rotkreuz, Switzerland). The T7 promoter sequence incorporated into the cDNA synthesis primer allowed template amplification and biotin labeling by in vitro transcription using a commercial kit (Affymetrix, Santa Clara, Calif.). After alkaline heat fragmentation […] was hybridised to the array (Affymetrix, Santa Clara, Calif.) and all subsequent steps were performed following standard procedures as supplied with the arrays. Raw data were collected with a confocal laser scanner (Hewlett Packard, Palo Alto, Calif.) using GeneChip software v3.1 (Affymetrix, Santa Clara, Calif.).
Raw data were normalized based on the total chip signal obtained upon hybridisation of ME15 cell line cDNA. This array was selected because: i) the 5′/3′ intensity ratio of control genes was smaller than 3; ii)>25% of the genes are called “present” by Genechip; iii) the image appearance is homogeneous with low background and no sign of mechanical chip damage.
The normalized average difference (nAD) between the signals of the perfect and of the mismatch probesets for each gene was used as the expression level of a given gene. At least one nAD value in a pairwise comparison of data has to exceed 50 to be included. Based on nAD, change factors related to IFN-α exposure were also calculated. Negative nAD values were set to 20 in order to avoid the calculation of artificially high modifications. In order to exclude artefacts, only genes with robust change factors, greater than 2-fold, were included in the analysis. […] Genes were clustered according to their mode of regulation.
Total cellular RNA was extracted from the sensitive and resistant melanoma cell lines identified above, reverse transcribed and processed for hybridization to an oligonucleotide array (Hu6800FL, PN 900183) containing probe sets derived from 7000 full-length human genes. Expression levels for each gene were calculated as normalized average difference (nAD, see materials and methods).
Patterns of genes expressed in IFN-α sensitive and resistant melanoma cell lines were investigated upon 48 hour culture in the presence of IFN-α. CNCM I-2546 and CNCM I-2545 were studied in detail.
In Table 2 below, CNCM I-2546 and CNCM I-2545 cultured for 48 hours in the absence or in the presence of 100 U/ml IFN-α were used to assay cytokine modulated gene expression as matched with data obtained in fibrosarcoma cells. This analysis yielded six clusters of genes. […] Data are presented as average difference of signal intensity between match and mismatch probesets.
In Table 3 below, CNCM I-2546 and CNCM I-2545 cell lines cultured for 48 hours in the absence or in the presence of 100 U/ml IFN-α were used to identify novel cytokine induced genes whose expression was not found to be modulated in fibrosarcoma cells. Cluster 1 includes genes inducible in the CNCM I-2546 sensitive but not in the CNCM I-2545 resistant cell line. Cluster 2 comprises genes inducible in both lines. Data are presented as average difference of signal intensity between match and mismatch probesets.

[1] = CNCM I-2546, IFN-α 100 U/ml 48 hours

change factor (CF) D32050 alanyl-trna synthetase [1]: 19.33
change factor (CF) D78132 rheb gene, ras-related gtp binding protein gene [1]: 1.58
change factor (CF) L13210 mac-2 binding protein [1]: 3.54
change factor (CF) L35249 vacuolar h + -atpase mr 56,000 subunit (ho57) [1]: 1.47
change factor (CF) L37043 casein kinase i epsilon [1]: 21.05
change factor (CF) L40387 thyroid receptor interactor (trip14) [1]: 3.25
change factor (CF) L42243 ifnar2 gene (interferon receptor) [1]: −1.3
change factor (CF) M19650 2′,3′-cyclic nucleotide 3prime-phosphodiesterase [1]: 3.89
change factor (CF) U18018 ela enhancer binding protein (ela-f) [1]: 2.18
change factor (CF) U47025 fetal brain glycogen phosphorylase b [1]: 3.79
change factor (CF) U50327 protein kinase c substrate 80k-h gene (prkcsh) [1]: 2.9
change factor (CF) U50648 interferon-inducible rna-dependent protein kinase (pkr) [1]: 2.55
change factor (CF) U65579 mitochondrial nadh dehydrogenase-ubiquinone [1]: 2.43
change factor (CF) U69126 fuse binding protein 2 (fbp2) [1]: 2.92
change factor (CF) U70063 human acid ceramidase [1]: 1.57
change factor (CF) U91316 acyl-coa thioester hydrolase [1]: 4.01
change factor (CF) X70848 protein phosphatase 1, catalytic subunit [1]: 2.03
change factor (CF) X90846 mixed lineage kinase 2 [1]: −1.46
change factor (CF) X95325 dna binding protein a variant [1]: 5.47
change factor (CF) Z26491 gene catechol o-methyltransferase [1]: 3.62
change factor (CF) Z47055 farnesyl pyrophosphate synthetase like [1]: 1.01
Substance: IFN-α
change factor (CF) D28137 bst-2 [1]: 9.89
change factor (CF) D49824 hla-b null allele [1]: 5.42
change factor (CF) D50914 EST [1]: 2.26
change factor (CF) HG658 major histocompatibility complex, class 1 c [1]: 9.85
change factor (CF) HG1612 macmarcks [1]: 2.59
change factor (CF) HG2917 major histocompatibility complex, class i, e [1]: 4.53
change factor (CF) J00105 beta-2 microglobulin gene [1]: 4.86
change factor (CF) J00212 leukocyte interferon (ifn-alpha) [1]: −1.82
change factor (CF) J03909 gamma-interferon-inducible protein (ip-30) [1]: 1.85
change factor (CF) J04164 interferon-inducible protein 27-sep [1]: 102.3
change factor (CF) J04182 lysosomal membrane glycoprotein-1 (lamp1) [1]: 1.69
change factor (CF) J04444 cytochrome c-1 gene [1]: 3.16
change factor (CF) K01900 lymphocyte interferon alpha type 201 [1]: 0.55
change factor (CF) K03515 neuroleukin [1]: 3.37
change factor (CF) L07633 interferon-gamma [1]: 1.52
change factor (CF) M13755 interferon-induced 17-kda/15-kda protein [1]: 34.8
change factor (CF) M30818 interferon-induced cellular resistance mediator protein [1]: −3.88
change factor (CF) M31013 nonmuscle myosin heavy chain (nmhc) [1]: 2.34
change factor (CF) M34338 spermidine synthase [1]: 2.29
change factor (CF) M60784 ul snrnp-specific protein [1]: 8
change factor (CF) M65028 heterogeneous nuclear ribonucleoprotein a/b [1]: 1.13
change factor (CF) M79462 pml-1 [1]: −1.15
change factor (CF) M92642 alpha-1 type xvi collagen (col16a1) [1]: 0
change factor (CF) M94880 mhc class i (hla-a*8001) [1]: 3.61
change factor (CF) M97935 transcription factor isgf-3 [1]: 13.8
change factor (CF) M98343 amplaxin (ems1) [1]: 6.05
change factor (CF) S81914 iex-1 = radiation-inducible immediate-early gene [1]: 9.06
change factor (CF) U01824 glutamate/aspartate transporter [1]: 3.55
change factor (CF) U09579 melanoma differentiation associated (mda-6) [1]: 3.35
change factor (CF) U18009 chromosome 17q21 clone lf113 [1]: 2.93
change factor (CF) U22970 16-jun gene, interferon-inducible peptide (6-16) [1]: 53.95
change factor (CF) U41515 dss1 [1]: −1.04
change factor (CF) U51127 interferon regulatory factor 5 [1]: 4.8
change factor (CF) U52513 rig-g [1]: 0.96
change factor (CF) U53830 interferon regulatory factor 7a [1]: 10.85
change factor (CF) U61263 acetolactate synthase homolog [1]: 2.09
change factor (CF) U65932 extracellular matrix protein 1 (ecm1) [1]: 2.02
change factor (CF) U72206 guanine nucleotide regulatory factor (lfp40) [1]: 3.06
change factor (CF) U72882 interferon-induced leucine zipper protein (ifp35) [1]: 24.1
change factor (CF) U78525 human eukaryotic translation initiation factor (eif3) [1]: 1.14
change factor (CF) X04412 plasma gelsolin [1]: 2.48
change factor (CF) X07730 prostate specific antigen [1]: 5.6
change factor (CF) X15949 interferon regulatory factor-2 (irf-2) [1]: −2.35
change factor (CF) X57351 1-8d gene from interferon-inducible gene family [1]: 113.8
change factor (CF) X57522 ring4 cdna [1]: 3.85
change factor (CF) X67325 p27 [1]: 19.5
change factor (CF) X76538 mpv17 [1]: 3.06
change factor (CF) X96401 rox protein [1]: 3.21
change factor (CF) Y00264 amyloid a4 precursor [1]: 2.42
change factor (CF) Z56281 interferon regulatory factor 3 [1]: 5.8
nAD D28137 bst-2 (Table 3, CNCM I-2546 (+) IFN-α 100 U/ml 48 hours, (−) 28): 305
change factor (CF) D28137 bst-2 (Table 3, CNCM I-2546, IFN-α 100 U/ml 48 hours): 9.89
